Laboratory results: patent publication US10674729B2, “Synergistic combination of 3-IODO-2-propynyl-butylcarbamate and diamine” (priority 2016, dated 2020)

Columns and labels:
Test in all cases: MIC and synergy testing in tryptic soy broth (turbidity reading)
Type in all cases: cell-based
[1] = test system: Candida albicans (DSMZ#1386); settings: 72 hours, 30° C., TSB
Method: (§1) The synergism of the biocides combination of the present invention was determined using the method described by Kull, F. C., et. al in Applied Microbiology 9:538-541 (1961). The formula to calculate the synergy index (SI) is Qa/QA+Qb/QB=SI Where • QA=concentration of compound A in ppm, acting alone produced an end point (growth/no growth) • Qa=concentration of compound A in ppm, in the mixture, which produced an end point (growth/no growth) • QB=concentration of compound B in ppm, acting alone produced an end point (growth/no growth) • Qb=concentration of compound B in ppm, in the mixture, which produced an end point (growth/no growth) […]
(§2) • 1. The test was executed with a Hamilton MLStarPlus robot using automated turbidity reading with BioTek Synergy H4 plate reader. • 2. […]
(§3) • The cultures were maintained as glycerol stocks at −80° C. in cryovials, are thawed and then 100 μl spread on MEA (malt extract agar) petri dishes. • The yeast strain plates were incubated at 28° C. for 1-2 days then harvested with buffer pH 5.0. • Based on total viable count results, the inoculum was prepared. • 7. […] Reading of the results was carried out by measuring absorbance at 600 nm for each sample at the beginning of the test (tzero) and after incubation (tendpoint). tendpoint was chosen at 48 hours for bacteria and 72 hours for yeast. […]

[2] = test system: Pseudomonas aeruginosa (DSMZ#939); settings: 48 hours, 30° C., TSB
Method: as §1, §2, §3

[3] = test system: Staphylococcus aureus (DSMZ#799); settings: 48 hours, 30° C., TSB
Method: as §1, §2, §3

SMILES: CCCCNC(=O)OCC#CI [IPBC, 3-Iodo-2-propynyl-butylcarbamate]
- MIC, single biocide [1]: 6.6 ppm
- MIC, single biocide [2]: 1400.0 ppm
- MIC, single biocide [3]: 21.6 ppm
